Data reported in patent US20080280933A1, “BENZIMIDAZOLYL COMPOUNDS” (priority 2006, published 2008).

Target: T1, mGluR2 receptor (metabotropic glutamate receptor 2) (Homo sapiens, UniProt Q14416)
T1 construct: expressed in transfected cells
Assay: mGluR2 Potentiator Screen, FLIPR, EC10-EC20 glutamate challenge
Type: cell-based
Conditions: listed as 1; read-out: EC50
Protocol: Procedure for mGluR2 Potentiator Screen NLB Methods EC10-EC20 Challenge Cell Culture and Plating:
Cells used for this screen are HEK cells stably transfected with the mGluR2 receptor (metabotropic glutamate receptor 2) and the Gα15 G protein. Clones were identified by functional activity (FLIPR). Cells are grown in growth media containing: DMEM High Glucose with Glutamine and Na Pyruvate (GIBCO), 10% (v/v) Heat inactivate FBS (GIBCO) G418 500 ug/ml (from 50 mg/ml stock) (GIBCO) and Blasticidin 3 ug/ml (from 5 mg/ml stock made in H2O) (Invitrogen).
2 days before the assay cell are trypsinized with 0.25% trysin/EDTA (GIBCO), spun down at 1000 rpm for 5 minutes, resuspended in growth media and plated on polystyrene 384 well black wall/clear bottom poly-D-lysine coated plates at a density of approximately 18,000 cells/well in a volume of 50 μL per well. One day before the assay the growth media is removed from the plates by flicking and replaced with media containing DMEM High Glucose without Glutamine and Na Pyruvate (GIBCO) and 10% (v/v) dialyzed FBS (GIBCO). The reason for the removal of glutamine the day before the assay is to minimize the amount of glutamate that will be present during the assay, as endogenous glutarnate released from the cells can reduce the fluorescent response and interfere with the FLIPR screen.
FLIPR Methods and Data Analysis:
On the day of the assay, the FLIPR assay is performed using the following methods:
The pH is adjusted to 7.4 with 1M NaOH. Prepare a 2 mM (approx.) stock solution of Fluo-4.am (Molecular Probes) dye in DMSO −22 μl DMSO per 50 ug vial (440 μL per 1 mg vial). Make a 1 mM (approx.) flou-4, PA working solution per vial by adding 22 μl of 20% pluronic acid (PA) (Molecular Probes) in DMSO to each 50 ug vial (440 μL per 1 mg vial). Prepare a 250 mM Probenecid (Sigma) stock solution by dissolving 0.71 g into 5 ml 1N NaOH and 5 ml assay buffer (for each liter of assay wash buffer). Make 4 uM (approx.) dye incubation media by adding 2.50 ug vials per 11 ml DMEM high glucose without glutamine (220 ml per 1 mg vial). Add 110 μL probenecid stock per 11 ml (2.5 mM final [concentration]). To the dye media add 3 units/ml of glutamic-pyruvic transaminase (GPT, Sigma) and 3 mM Na Pyruvate. The assay has worked with dye concentrations from 2 uM to 8 uM dye as well. To the assay buffer from drug preparation, add 1.83 mls DMSO and 400 μL. 15.8% P104 (from New Leads biology) per liter for final concentrations of 0.18% DMSO and 0.006% P104. To the assay buffer for cell washing, add probenecid in the same manner and concentration that was used for the dye media.
Remove growth media from cell plates by flicking. Add 50 μl/well dye solution. Incubate 1 hour at 37° C. and 5% CO2. Remove dye solution and wash 3 times with assay buffer+probenecid (100 μl probenecid stock per 10 ml buffer), leaving 30 μL/well assay buffer. Wait at least 10-15 minutes. Compounds and agonist challenge additions are performed with the FLIPR. The in addition is for test compounds, which are added as 15 μL of 4× [concentration] of potentiator. The second 2nd addition is 15 μL of 4× [concentration] of agonist or challenge. This achieves 1× concentration of all compounds only after 2nd addition. The 1st and 2nd additions are performed separately using the FLIPR, which give 2 different data files. Compounds are pretreated at least 30 minutes before agonist addition.
Results are analyzed by dividing the peak fluorescent value of the FLIPR response by the […] to achieve a ratio response. The ratios are then analyzed by curve fitting programs. Since potent compounds can give an inverted U dose response curve (due to effects on endogenous glutamate by the potentiators) points are deleted at concentrations higher than the concentration that gives the maximum effect. Maximum values for dose response curves (forced fitting) are derived from standards on the plate.
Compound Preparation and Glutamate Challenge: […]

T1 sequence (Q14416 19-872, species assumed): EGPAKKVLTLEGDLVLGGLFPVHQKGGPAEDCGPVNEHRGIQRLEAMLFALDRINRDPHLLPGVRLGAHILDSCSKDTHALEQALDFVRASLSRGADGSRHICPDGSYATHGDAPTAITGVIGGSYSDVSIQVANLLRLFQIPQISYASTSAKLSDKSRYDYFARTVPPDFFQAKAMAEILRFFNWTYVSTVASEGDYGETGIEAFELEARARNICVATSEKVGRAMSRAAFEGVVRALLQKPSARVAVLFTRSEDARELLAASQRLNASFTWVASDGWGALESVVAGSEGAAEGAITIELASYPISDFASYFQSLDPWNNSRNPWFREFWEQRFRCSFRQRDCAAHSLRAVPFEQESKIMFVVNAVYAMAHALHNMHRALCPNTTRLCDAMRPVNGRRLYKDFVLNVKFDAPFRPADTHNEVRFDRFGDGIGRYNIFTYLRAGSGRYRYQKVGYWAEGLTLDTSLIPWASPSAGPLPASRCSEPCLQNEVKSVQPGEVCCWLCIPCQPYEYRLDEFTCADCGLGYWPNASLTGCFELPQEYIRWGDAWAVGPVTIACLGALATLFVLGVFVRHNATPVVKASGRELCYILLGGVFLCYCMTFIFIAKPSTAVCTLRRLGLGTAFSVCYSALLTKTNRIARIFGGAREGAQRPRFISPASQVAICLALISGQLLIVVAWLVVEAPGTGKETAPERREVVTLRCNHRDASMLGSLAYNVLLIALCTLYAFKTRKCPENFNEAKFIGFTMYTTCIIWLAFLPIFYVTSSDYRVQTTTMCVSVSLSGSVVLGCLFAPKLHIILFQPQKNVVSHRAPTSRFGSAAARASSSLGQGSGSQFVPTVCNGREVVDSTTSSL

Compound `COc1cc(C(F)(F)F)ccc1C1CCN(Cc2nc3ccccc3n2C)CC1` [Entry 354] has an EC50 of over 6170 nM.

Same assay, conditions: mGluR2 potentiator screen, Table 7; read-out: EC50

In order of falling EC50:
1. CC(C)COc1ccc(Cl)cc1C1CCN(Cc2nc3ccccc3n2CF)CC1 [compound 177]  3470 nM
2. COc1ccc(OC)c(C2CCN(Cc3nc4c(Br)cccc4n3C)CC2)c1 [compound 165]  2660 nM
3. Cn1c(CN2CC[C@@H]3c4ccccc4CC[C@@H]3C2)nc2c(Br)cccc21 [compound 168]  1200 nM
4. Cn1c(CN2CCC(c3ccc(C(F)(F)F)cc3)CC2)nc2c(Br)cccc21 [compound 164]  838 nM
5. Cn1c(CN2CCC(c3cc(Cl)ccc3OCC3CCCO3)CC2)nc2ccccc21 (centres unmarked) [compound 207]  666 nM
6. COCCn1c(CN2CCC(c3cc(Cl)ccc3OCC3CC3C)CC2)nc2ccccc21 (centres unmarked) [compound 201]  623 nM
7. FCn1c(CN2CCC(c3cc(Cl)ccc3OCCC3CC3)CC2)nc2ccccc21 [compound 188]  566 nM
8. CCCCOc1ccc(Cl)cc1C1CCN(Cc2nc3ccccc3n2CCOC)CC1 [compound 184]  479 nM
9. CCCOc1ccc(Cl)cc1C1CCN(Cc2nc3ccccc3n2CCF)CC1 [compound 222]  248 nM
10. CCCOc1ccc(Cl)cc1C1CCN(Cc2nc3ccccc3n2CCOC)CC1 [compound 223]  233 nM

Same assay, conditions: read-out: EC50

First: CC(C)Oc1ccccc1C1CCN(Cc2nc3cc(C#N)ccc3n2C)CC1 [compound 402]
Second: COc1cc(C(F)(F)F)ccc1C1CCN(Cc2nc3ccccc3n2C)CC1 [Entry 354]
The EC50 of the first is higher: 523 nM for the first, under 19.3 nM for the second. The second is the more potent here.

`CCCN1CC2(CCN(Cc3nc4ccccc4n3C)CC2)c2ccccc21` [compound 130] and `CCCCN1CC2(CCN(Cc3nc4ccccc4n3C)CC2)c2cc(F)ccc21` [compound 140] are within 1.5-fold of each other in EC50: 3080 nM for the first, 2120 nM for the second.

`Cn1c(CN2CC[C@H]3c4ccccc4OC[C@H]3C2)nc2ccccc21` [compound 471] and `CCCCN1CC2(CCN(Cc3nc4ccccc4n3C)CC2)c2cc(C)ccc21` [compound 139] are within 1.5-fold of each other in EC50: 2070 nM for the first, 1970 nM for the second.

Compared with `COc1ccc(C(F)(F)F)cc1C1CCN(Cc2nc3cc(Cl)ccc3n2C)CC1` [compound 386], `Cn1c(CN2CCC3(CC2)CN(C(=O)C2COc4ccccc4O2)c2ccccc23)nc2ccccc21` (centres unmarked) [compound 52] is lower in EC50: over 3740 nM for the first, 1390 nM for the second. The second is the more potent here.

Going from `COc1ccc(Cl)cc1C1CCN(Cc2nc3ccccc3n2CF)CC1` [compound 232] to `CCOc1ccc(Cl)cc1C1CCN(Cc2nc3ccccc3n2CF)CC1` [compound 226], the EC50 rises from 396 nM to 637 nM (1.6-fold). The first is the more potent here.

`CCOC(=O)CCC(=O)N1CC2(CCN(Cc3nc4ccccc4n3C)CC2)c2cc(C)ccc21` [compound 33] and `Cn1c(CN2CCC(c3cccc(C#N)c3)CC2)nc2ccccc21` [compound 418] are within 1.5-fold of each other in EC50: 1350 nM for the first, 1610 nM for the second.

Compared with `Cn1c(CN2CCC(O)(c3ccc(Cl)cc3)CC2)nc2ccccc21` [compound 76], “2-((4-(2-Fluorophenyl)piperidin-1-yl)methyl)-1-methyl-1H-benzo[d]imidazole-5-carbonitrile [Entry 272]” is lower in EC50: over 5730 nM for the first, 439 nM for the second. The second is the more potent here.

Compared with `Cc1ccc2c(c1)C1(CCN(Cc3nc4ccccc4n3C)CC1)CN2CC1CC1` [compound 142], `Cn1c(CN2CCC(c3ccccc3C#N)CC2)nc2ccccc21` [compound 416] is 18-fold lower in EC50: 3020 nM for the first, 168 nM for the second.

`FCn1c(CN2CCC(c3ccccc3F)CC2)nc2ccccc21` [compound 252] and `COCCn1c(CN2CCC(c3cc(C(F)(F)F)ccc3F)CC2)nc2ccccc21` [compound 326] are within 1.5-fold of each other in EC50: 225 nM for the first, 263 nM for the second.

Going from `Cc1ccc2c(c1)C1(CCN(Cc3nc4ccccc4n3C)CC1)CN2C(=O)c1c(C)noc1C` [compound 31] to `COc1ccc(Cl)cc1C1CCN(Cc2nc3ccccc3n2CCF)CC1` [compound 233], the EC50 falls from 2040 nM to 264 nM (7.7-fold). The second is the more potent here.

First: Cn1c(CN2CCC3(CC2)CNc2ccc(Cl)cc23)nc2ccccc21 [compound 128]
Second: COc1cc(C(F)(F)F)ccc1C1CCN(Cc2nc3ccccc3n2C2CC2)CC1 [compound 359]
The EC50 of the first is higher: over 8980 nM for the first, 940 nM for the second. The second is the more potent here.

Going from `FCn1c(CN2CCC(c3ccccc3C(F)(F)F)CC2)nc2ccccc21` [compound 256] to `Cn1c(CN2CCC(c3ccccc3F)CC2)nc2ccccc21` [compound 79], the EC50 falls from 422 nM to 21 nM (20-fold).

Compared with `Cn1c(CN2CCC(c3ccccc3F)CC2)nc2ccc(Br)cc21` [compound 274], `Cn1c(CN2CCC3(CC2)CN(C(=O)c2ccco2)c2ccccc23)nc2ccccc21` [compound 63] is 14-fold higher in EC50: 318 nM for the first, 4510 nM for the second.

Going from `Cc1ccc2c(c1)C1(CCN(Cc3nc4ccccc4n3C)CC1)CN2C(=O)C(C)C` [compound 24] to `Cn1c(CN2CCC(c3cc(C(F)(F)F)cc(C(F)(F)F)c3)CC2)nc2ccccc21` [compound 348], the EC50 falls from 1620 nM to 201 nM (8.1-fold).

Compared with `C[C@@H]1CN(Cc2nc3ccccc3n2C)CC[C@@H]1c1ccc(Cl)cc1F` (relative stereo) [compound 461], `Cn1c(CN2CCC(c3ccc(C(F)(F)F)cc3)CC2)nc2cc(C(N)=O)ccc21` [compound 364] is 16-fold higher in EC50: 30.3 nM for the first, 498 nM for the second. The first is the more potent here.

First: C#CCOc1ccc(Cl)cc1C1CCN(Cc2nc3ccccc3n2CCOC)CC1 [compound 239]
Second: Cc1cc(F)ccc1C1CCN(Cc2nc3ccccc3n2C)CC1 [compound 310]
The EC50 of the first is 1.8-fold higher: 79 nM for the first, 43.3 nM for the second.

First: Cn1c(CN2CCC(c3cc(Cl)ccc3F)CC2)nc2cc(F)ccc21 [compound 372]
Second: Cn1c(CN2CCC(O)(c3ccc(Br)cc3)CC2)nc2ccccc21 [compound 75]
The EC50 of the first is lower: 308 nM for the first, over 7480 nM for the second.

`Cc1nnsc1C(=O)N1CC2(CCN(Cc3nc4ccccc4n3C)CC2)c2cc(F)ccc21` [compound 18] and `CCOCCOc1ccccc1C1CCN(Cc2nc3ccccc3n2C)CC1` [compound 89] are within 1.5-fold of each other in EC50: 2450 nM for the first, 1750 nM for the second.

First: Cn1c(CN2CCC(c3ccc(F)cc3F)CC2)nc2cc(C#N)ccc21 [compound 427]
Second: COc1ccccc1C1CCN(Cc2nc3cc(F)c(F)cc3n2C)CC1C (centres unmarked) [compound 293]
The EC50 of the first is 6.1-fold lower: 140 nM for the first, 850 nM for the second. The first is the more potent here.

Compared with `Cn1c(CN2CCCC(c3ccc(C(F)(F)F)cc3)CC2)nc2ccccc21` (centres unmarked) [compound 303], `Cn1c(CN2CCC(c3ccccc3F)CC2)nc2cc(C#N)ccc21` [Entry 272, 2-((4-(2-Fluorophenyl)piperidin-1-yl)methyl)-1-methyl-1H-benzo[d]imidazole-5-carbonitrile] is 12-fold lower in EC50: 868 nM for the first, 73 nM for the second.

First: FCCn1c(CN2CCC(c3ccc(F)cc3)CC2)nc2ccccc21 [compound 370]
Second: Cc1ccc(C2CCN(Cc3nc4ccccc4n3C)CC2)cc1C [compound 315]
The EC50 of the first is 1.9-fold higher: 582 nM for the first, 308 nM for the second.

Going from “2-[4-(2-Methoxy-phenyl)-piperidin-1-ylmethyl]-1-methyl-1H-benzoimidazole-5-carboxylic acid [Entry 288]” to `COc1ccccc1C1(OC)CCN(Cc2nc3c(Br)cccc3n2C)CC1C` (centres unmarked) [compound 333], the EC50 rises from 569 nM to 4760 nM (8.4-fold).

Going from “4-Fluoro-2-((4-(2-Fluorophenyl)piperidin-1-yl)methyl)-1-methyl-1H-benzo[d]imidazole [Entry 325]” to `Cn1c(CN2CCC(c3ccc(C(F)(F)F)cc3F)CC2)nc2cc(Cl)ccc21` [compound 384], the EC50 rises from 97.9 nM to 493 nM (5-fold).

First: Cn1c(CN2CCC3(CC2)CN(C(=O)C2CCC2)c2ccccc23)nc2ccccc21 [compound 60]
Second: COc1cc(C(F)(F)F)ccc1C1CCN(Cc2nc3ccccc3n2C)CC1 [compound 355]
The EC50 of the first is 33-fold higher: 2220 nM for the first, 66.7 nM for the second.

Compared with `CCC(=O)N1CC2(CCN(Cc3nc4ccccc4n3C)CC2)c2cc(F)ccc21` [compound 20], `Cn1c(CN2CCC3(CC2)CN(C(=O)COCc2ccccc2)c2ccccc23)nc2ccccc21` [compound 58] is 5.8-fold lower in EC50: 3390 nM for the first, 589 nM for the second. The second is the more potent here.

`Cn1c(CN2CCC3(CC2)CN(Cc2ccccc2)c2ccccc23)nc2ccccc21` [compound 109] was tested, and the EC50 was 5220 nM.
